Data taken from patent US20090062206A1 (UNIVERSITY OF SOUTH FLORIDA, priority 2006, published 2009).
Like-named read-outs stand apart in the source and are kept apart here.

Columns and labels:
[1] = tested on: human renal carcinoma cells; assay: DNA synthesis by bromodeoxyuridine (BrdU) incorporation into renal carcinoma cells; format: cell-based; settings: 1 μM, incubated 24 hours
Text: To investigate whether these peptide hormones were inhibiting DNA synthesis, bromodeoxyuridine (BrdU) incorporation into the renal carcinoma cells was utilized as previously described from our laboratory. BrdU was from BD Bioscience, San Jose, Calif.

[2] = human or animal subjects; cited from earlier work
[3] = tested on: human renal-cell carcinoma cells (ATCC CRL-2175); assay: Decrease in number of human renal-cell carcinoma cells (cell counting on coverslips); format: cell-based; settings: for number of renal carcinoma cells remaining per high powered field: control 89±7 cells
Experimental: A cell line (ATCC number CRL-2175) of human renal-cell carcinoma cells were purchased from American Type Culture Collection (ATCC, Manassas, Va.). This renal cancer cell line was established by A. Leibovitz in 1972 from a renal-cell carcinoma removed from a person with blood type O, Rh+.
Propagation of these renal cancer cells was in Leibovitz's L-15 medium supplemented with 10% fetal bovine serum (Atlanta Biologicals, Lawrenceville, Ga.) at a temperature of 37° C. in a CO2 free environment as recommended by the ATCC. Cells were dispensed in new flasks with subculturing two to three times per week.
After the renal-cell carcinoma cells were subcultured for 24 hours they were then seeded to coverslips in 24-well plates (Nunclon™, Roskilde, Denmark) with 1 mL of the above media. There were 65,000 cells seeded to each coverslip. After 24 hours, the well plates were washed twice with phosphate-buffered saline to remove the fetal bovine serum. Removal of serum was carried out to completely remove all variables (EGF, etc.) present in serum in order that interpretation of any data obtained would be straightforward. After 24 hours of serum deprivation, media volume was reduced to 250 μL per well with, or without, the respective peptide hormones in dose-response curves with concentrations up to and including 100 μM (1% of this volume). Human renal carcinoma cells were then incubated for various periods of time [24, 48, 72, and 96 hours]. The number of renal carcinoma cells were then counted with a cell counter (Thomas Scientific Swedesboro, N. J.) evaluating ten fields of the microscope slide at x40 along the X-axis with an Olympus BH-2 microscope (Atlanta, Ga.). This evaluation was repeated on six separate occasions with the number of renal carcinoma cells reflecting 60 observations for each group, i.e., 60 observations for controls and 60 observations for each of the six groups with respective peptide hormones. The peptide hormones used in this investigation were from Phoenix Pharmaceuticals, Inc., Belmont, Calif. In the Results section, the number of cancer cells reported is the number of cells in each individual field. Ten fields were examined on each microscope slide. The results of the ten fields were pooled and the average of the ten fields is illustrated in the Results section.
The number of renal carcinoma cells after 24 hours without the addition of any of the peptide hormones averaged 89±7 cells per high powered field when ten fields of the coverslip were evaluated at ×40 along the X-axis with an Olympus BH2 microscope. This evaluation was repeated on six separate occasions, with the above number reflecting 60 observations by two independent investigators of the control group and each of the five groups with the addition of one of the peptide hormones. The same number of observations were done in a seventh group where four of the peptides were added together (each at 1 μM) to determine if they may have an additive effect.

NPR-A receptor = NPR-A receptor (Homo sapiens, UniProt P16066); settings: cited from earlier work
NPR-C receptor = NPR-C receptor (Homo sapiens, UniProt P17342); settings: cited from earlier work
prostate adenocarcinoma = settings: 1 μM; cited from earlier work
[4] = tested on: small-cell lung cancer cells; settings: 1 μM; cited from earlier work
[5] = 1 μM, at 48 hours after 24 hour exposure
[6] = 1 μM, at 72 hours after 24 hour exposure
[7] = 1 μM, at 96 hours after 24 hour exposure
[8] = 10 μM, at 48 hours after 24 hour exposure
[9] = 10 μM, at 72 hours after 24 hour exposure
[10] = 10 μM, at 96 hours after 24 hour exposure
[11] = 100 μM, at 48 hours after 24 hour exposure
[12] = 100 μM, at 72 hours after 24 hour exposure
[13] = 100 μM, at 96 hours after 24 hour exposure

Chain of NPR-C receptor (P17342 27-541): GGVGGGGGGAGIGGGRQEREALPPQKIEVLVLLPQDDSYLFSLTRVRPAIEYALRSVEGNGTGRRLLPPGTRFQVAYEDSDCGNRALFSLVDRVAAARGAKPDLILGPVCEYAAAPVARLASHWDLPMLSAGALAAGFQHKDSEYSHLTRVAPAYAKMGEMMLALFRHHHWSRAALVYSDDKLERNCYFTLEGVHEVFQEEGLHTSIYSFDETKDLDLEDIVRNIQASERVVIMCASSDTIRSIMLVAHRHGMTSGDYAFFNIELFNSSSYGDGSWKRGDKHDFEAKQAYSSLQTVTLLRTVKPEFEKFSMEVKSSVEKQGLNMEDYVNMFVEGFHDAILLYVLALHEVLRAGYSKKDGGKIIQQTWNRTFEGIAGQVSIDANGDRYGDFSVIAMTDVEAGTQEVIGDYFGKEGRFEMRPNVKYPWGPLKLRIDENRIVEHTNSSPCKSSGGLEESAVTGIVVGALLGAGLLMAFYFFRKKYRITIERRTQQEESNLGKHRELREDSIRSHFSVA
Chain of NPR-A receptor (P16066 33-1061): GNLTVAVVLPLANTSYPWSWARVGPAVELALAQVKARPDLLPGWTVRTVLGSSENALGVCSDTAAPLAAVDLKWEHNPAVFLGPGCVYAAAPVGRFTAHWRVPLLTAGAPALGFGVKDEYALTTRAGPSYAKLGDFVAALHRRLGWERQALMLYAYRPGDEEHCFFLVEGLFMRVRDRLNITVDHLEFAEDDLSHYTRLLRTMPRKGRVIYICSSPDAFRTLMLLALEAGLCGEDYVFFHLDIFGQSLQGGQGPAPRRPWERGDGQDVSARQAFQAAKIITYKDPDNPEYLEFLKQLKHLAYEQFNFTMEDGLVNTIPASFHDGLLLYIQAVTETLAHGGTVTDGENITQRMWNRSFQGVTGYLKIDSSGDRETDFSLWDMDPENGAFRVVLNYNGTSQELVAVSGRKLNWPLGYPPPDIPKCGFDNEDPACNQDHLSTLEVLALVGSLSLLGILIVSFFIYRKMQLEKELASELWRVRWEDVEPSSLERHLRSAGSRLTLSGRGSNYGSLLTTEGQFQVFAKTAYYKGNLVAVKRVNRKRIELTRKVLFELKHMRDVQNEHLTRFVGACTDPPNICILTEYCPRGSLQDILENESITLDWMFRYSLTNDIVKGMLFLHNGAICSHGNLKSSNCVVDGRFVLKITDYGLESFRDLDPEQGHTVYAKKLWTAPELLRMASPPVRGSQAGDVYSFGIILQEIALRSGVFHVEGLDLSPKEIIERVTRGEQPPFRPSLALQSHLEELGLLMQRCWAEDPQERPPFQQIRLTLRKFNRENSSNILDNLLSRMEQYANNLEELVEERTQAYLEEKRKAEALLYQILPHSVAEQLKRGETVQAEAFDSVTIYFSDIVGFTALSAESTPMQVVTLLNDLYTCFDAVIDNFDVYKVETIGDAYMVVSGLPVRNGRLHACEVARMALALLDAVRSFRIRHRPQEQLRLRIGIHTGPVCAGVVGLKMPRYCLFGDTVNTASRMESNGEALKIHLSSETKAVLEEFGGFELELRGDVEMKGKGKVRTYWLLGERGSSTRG

Compound	inhibition of DNA synthesis [1] [%]	side effect hypotension [2]	decrease in number of renal carcinoma cells [3, 5] [%]	decrease in number of renal carcinoma cells [3, 6] [%]	decrease in number of renal carcinoma cells [3, 7] [%]	decrease in number of renal carcinoma cells ([3]; 10 μM, 24 hours) [%]	decrease in number of renal carcinoma cells [3, 8] [%]	decrease in number of renal carcinoma cells [3, 9] [%]	decrease in number of renal carcinoma cells [3, 10] [%]	decrease in number of renal carcinoma cells ([3]; 100 μM, 24 hours) [%]	number of renal carcinoma cells remaining per high powered field ([3]; 100 μM, 24 hours) [cells]	decrease in number of renal carcinoma cells [3, 11] [%]	decrease in number of renal carcinoma cells [3, 12] [%]	decrease in number of renal carcinoma cells [3, 13] [%]	decrease in number of renal carcinoma cells ([3]; 1 μM, 24 hours) [%]	further results
CC[C@H](C)[C@@H]1NC(=O)[C@H](CCCNC(=N)N)NC(=O)[C@H](CC(=O)O)NC(=O)[C@H](CCSC)NC(=O)[C@H](CCCNC(=N)N)NC(=O)CNC(=O)CNC(=O)[C@H](Cc2ccccc2)NC(=O)[C@@H](NC(=O)[C@H](CO)NC(=O)[C@H](CO)NC(=O)[C@H](CCCNC(=N)N)NC(=O)[C@H](CCCNC(=N)N)NC(=O)[C@H](CC(C)C)NC(=O)[C@@H](N)CO)CSSC[C@@H](C(=O)N[C@@H](CC(N)=O)C(=O)N[C@@H](CO)C(=O)N[C@@H](Cc2ccccc2)C(=O)N[C@@H](CCCNC(=N)N)C(=O)N[C@@H](Cc2ccc(O)cc2)C(=O)O)NC(=O)CNC(=O)[C@H](CC(C)C)NC(=O)CNC(=O)[C@H](CO)NC(=O)[C@H](CCC(N)=O)NC(=O)[C@H](C)NC(=O)CNC1=O [ANP]	77	observed														
LANP: long acting natriuretic peptide, peptide hormone within the 126 amino acid ANP prohormone (NPMYNAVSNADLMDFKNLLDHLEEKMPLED; Long-acting natriuretic peptide; UniProt P01160 26-55, looked up)	70	never	30	30	24	55	50	47	39	70	26±2	70	70	61		
Urodilatin	65		17	15	10	46	46	43	37	66	30±2	65	64	58	24	cancer cells killed (maximum) ([3]; within 24 hours, concentration not given): up to 81%; binding curves compared with ANP (NPR-A receptor): superimposable with ANP; binding curves compared with ANP (NPR-A receptor; listed as urodilatin): nearly superimposable binding curves; binding curves compared with ANP (NPR-C receptor): superimposable with ANP; binding curves compared with ANP (NPR-C receptor; listed as urodilatin): nearly superimposable binding curves
kaliuretic peptide: peptide hormone within the 126 amino acid ANP prohormone synthesized in the heart (SSDRSALLKSKLRALLTAPR; Kaliuretic peptide; UniProt P01160 104-123, looked up)	74	never	35	31	25	54	52	47	40	74	23±3	76	71	64	39	decrease in cancer cell number (prostate adenocarcinoma): 30%; decrease in cancer cell number [4]: 30%
vessel dilator: peptide hormone within the 126 amino acid ANP prohormone synthesized in the heart (EVVPPQVLSEPNEEAGAALSPLPEVPPWTGEVSPAQR; Vessel dilator; UniProt P01160 56-92, looked up)	84	never	55	51	43	62	66	64	55	81	17±4	81	80	68	59	
